“And” between values parts separate entries of the source, which are not always exact repeats. Identical values can stand only once.
How the values were obtained:
[1] = system: 5'-GMP; test: Kinetic 5'-GMP assay (1H NMR, rate of reaction of platinum complex with 5'-GMP); type: biochemical; details: D2O, pH 7, 25°C; for Rate constant for the reaction of 5'-GMP with the platinum(II) complex: excess platinum, fitted first order in each reactant
Procedure: The reaction of each platinum compound with 5'-GMP (Acros) was monitored using ^1H NMR spectroscopy to observe the disappearance of the H8 signal of the unreacted 5'-GMP at ≈8 ppm and the appearance of a product signal ≈0.5–1.0 ppm downfield of the unreacted 5'-GMP. The reaction was conducted with excess platinum compound present in each case. A 10 mM solution of 5'-GMP and a 10–20 mM solution of the platinum(II) compound were prepared separately in D2O. The pH (uncorrected for the effects of deuterium) of each solution was adjusted to 7, and the samples were equilibrated to 25°C in a water bath. Aliquots of the two solutions were combined and placed in an NMR tube; typically, the final concentrations of platinum was 5–18 mM and the concentration of 5'-GMP was 1 mM (except for the [Pt(dien)Cl]^+ reaction, where it was 0.5 mM). Samples were maintained at 25°C throughout the NMR experiment. The H8 resonances were integrated and the data was fitted to an equation that was first order in each reactant using DynaFit to determine rate constants. At least two runs were conducted for each platinum compound using fresh samples.

[2] = system: zebrafish utricle hair cells; test: Hair cell quantification, utricle; type: in vivo, Danio rerio; details: extrastriolar (E1-E3) and striolar (S1-S3) regions, 25 mg/kg i.p., 48 hours
Excerpt: Zebrafish (Danio rerio) were purchased from a commercial supplier (Segrest Farms, Gibsonton, FL) and maintained in the animal facility of Western Kentucky University according to a protocol approved by the Institutional Animal Care and Use Committee. All zebrafish used in this study were a mix of male and female adult animals at least 6 months of age and were maintained according to standard methods.
Zebrafish were sedated with tricaine methanesulfonate (MS-222, Argent, Redmond, WA), weighed, and then intraperitoneally microinjected with 25 mg/kg body weight of platinum test compound or an equivalent volume of vehicle (0.9% NaCl) control using a 35 gauge syringe operated by a Micro4 microsyringe pump controller (World Precision Instruments, Sarasota, FL). After injection, fish were returned to holding tanks for either 24 or 48 hours and then subjected to hearing tests followed by hair cell quantification analysis. […]
GraphPad Prism v6 (La Jolla, CA) was used for all statistical analysis. Nuclear fraction platinum uptake as a total percent of combined nuclear and cytosolic uptake was analyzed using a one-way ANOVA (Brown-Forsyth test; p ≤ 0.05). IC50 values were calculated in Prism using the sigmoidal, 4PL, x is log(concentration) analysis feature or were calculated from Prism derived values using the equation y = mx + b. […]

[3] = system: A549 lung cancer cell line; test: MTT cellular viability assay, A549; type: cell-based; details: 72 hours, ± standard deviation
Procedure: Cell lines were obtained from American Type Culture Collection (ATCC, Manassas, VA). […] Caco-2 (ATCC: HTB-37) colorectal cancer was grown in EMEM with 20% FBS and 1% penicillin/streptomycin. All cell lines were incubated at 37°C in 5% CO2 with passaging every 4–7 days. Cell culture media and supplements were obtained from ATCC, Atlanta Biologicals (Flowery Branch, GA), Mediatech (Tewksbury, MA), Fisher Scientific (Waltham, MA), Gibco (Gaithersburg, MD) and Sigma-Aldrich.
The MTT (3-(4,5-dimethylthiazol-2-yl)-2,5-diphenyltetrazolium bromide) cellular viability assay was performed in all three cancer cell lines and the non-cancer cell line. Following a protocol adapted from, cells were seeded at 5,000 cells per well in 96-well plates and incubated at 37°C in 5% CO2 in F-12K Medium or EMEM with FBS supplementation and 1% penicillin/streptomycin for 24 hours. Then, wells were treated in replicates of six according to a concentration series (500, 50, 5, 0.5, 0.05 μM) of specific platinum complexes for 72 hours. A negative control (media only), positive control (Triton X-100) and series of blanks were simultaneously performed. The MTT assay was run for 2 hours, then well contents were rapidly evacuated out and all wells were treated with MTT solubilization solution [10% Triton X-100 in acidic (0.1N HCl) isopropanol] for 15 minutes before the plates were read using a BioTek Synergy HT microplate plate reader (570 nm and 690 nm absorbance wavelengths). Reagents, cell culture media and supplements were obtained from ATCC, Atlanta Biologicals, Mediatech, Fisher Scientific, Gibco and Sigma-Aldrich.
GraphPad Prism v6 (La Jolla, CA) was used for all statistical analysis. Nuclear fraction platinum uptake as a total percent of combined nuclear and cytosolic uptake was analyzed using a one-way ANOVA (Brown-Forsyth test; p ≤ 0.05). IC50 values were calculated in Prism using the sigmoidal, 4PL, x is log(concentration) analysis feature or were calculated from Prism derived values using the equation y = mx + b. MTT assay standard deviation values were calculated using ED50plus v1.0 online software. AEP threshold data were analyzed by two-way ANOVA (Dunnett’s multiple comparisons test; p ≤ 0.05) and hair cell quantification data by two-way ANOVA (Tukey’s multiple comparisons test; p ≤ 0.05). AEP temporary threshold shifts (TTS) were calculated by subtracting the mean vehicle threshold for each frequency from each treatment threshold. TTS data were averaged across frequencies for each treatment and were analyzed by one-way ANOVA (Tukey’s multiple comparisons test; p ≤ 0.05).

[4] = system: A549, Caco2, HTB16 and IMR90 cell lines; test: MTT cellular viability assay, comparison over all cell lines; type: cell-based; details: in our cell lines (Table 2)
Procedure: Cell lines were obtained from American Type Culture Collection (ATCC, Manassas, VA). The A549 (ATCC: CCL-185) lung cancer cell line was grown in F12K media with 10% FBS and 1% penicillin/streptomycin supplementation. Both the U-138 MG (ATCC: HTB-16) glioblastoma cancer cell line and IMR-90 (ATCC: CCL-186) lung fibroblast control cell line were grown in Eagle’s Minimum Essential Medium (EMEM) with supplementation as in A549. Caco-2 (ATCC: HTB-37) colorectal cancer was grown in EMEM with 20% FBS and 1% penicillin/streptomycin. All cell lines were incubated at 37°C in 5% CO2 with passaging every 4–7 days. […]
The MTT (3-(4,5-dimethylthiazol-2-yl)-2,5-diphenyltetrazolium bromide) cellular viability assay was performed in all three cancer cell lines and the non-cancer cell line. […] The MTT assay was run for 2 hours, then well contents were rapidly evacuated out and all wells were treated with MTT solubilization solution [10% Triton X-100 in acidic (0.1N HCl) isopropanol] for 15 minutes before the plates were read using a BioTek Synergy HT microplate plate reader (570 nm and 690 nm absorbance wavelengths). […]
GraphPad Prism v6 (La Jolla, CA) was used for all statistical analysis. Nuclear fraction platinum uptake as a total percent of combined nuclear and cytosolic uptake was analyzed using a one-way ANOVA (Brown-Forsyth test; p ≤ 0.05). […]

Compound | Relative rate (rate constant divided by the rate constant for [Pt(dien)Cl]^+) [1] | Rate constant for the reaction of 5'-GMP with the platinum(II) complex [1] | effect on utricle hair cell density compared to vehicle [2] | IC50 [3] [µM] | fold reduction in the rate relative to [Pt(dien)Cl]^+ [1] | Rate constant for the reaction of 5'-GMP with the platinum(II) complex ([1]; listed as phenanthriplatin) | factor by which cellular viability is reduced more than by pyriplatin [4]
[Cl][Pt-2]12[NH2+]CC[NH+]1CC[NH2+]2 (stereo not drawn) [[Pt(dien)Cl]^+, Pt(diethylenetriamine)Cl] | 1 | 3.9 ± 0.1 x 10^−1 M^-1s^-1 and 3.9 (+/- 0.1) x 10^−1 M^-1s^-1 | one elevated mean hair cell density count at S2 | 198 ± 4.8 | – | – | –
phenanthriplatin | 0.041 | 1.63 (+/- .02) x 10^−2 M^-1s^-1 | – | – | ~ 25 fold | 1.63 ± 0.02 x 10^-2 M^-1s^-1 | at least 10
